Tested on: P12-Ichikawa
Assay: cell viability relative to DMSO control; higher = less cytotoxic
Conditions: 48 h
Procedure, shortened: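 NOMO1, SEM and P12-Ichikawa leukemia cells spent at least four passages adapting to each medium before use. They were seeded at 500 cells/well (NOMO1, SEM) or 1000 cells/well (P12-Ichikawa) in 5 μl in 1536-well plates and pin-dosed with library compounds in DMSO at 11 threefold steps from 47 μM down to 0.79 nM. After 48 h at 37°C, CellTiter-Glo One luminescence was read. Viability is reported as a percentage of the DMSO wells on each plate, with cell-free wells as background.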

[1] = HPLM + 10% dialyzed FBS, 0.000781 µM
[2] = HPLM + 10% dialyzed FBS, 0.00234 µM
[3] = HPLM + 10% dialyzed FBS, 0.00702 µM
[4] = HPLM + 10% dialyzed FBS, 0.0211 µM
[5] = HPLM + 10% dialyzed FBS, 0.0632 µM
[6] = HPLM + 10% dialyzed FBS, 0.19 µM
[7] = HPLM + 10% dialyzed FBS, 0.569 µM
[8] = HPLM + 10% dialyzed FBS, 1.71 µM
[9] = HPLM + 10% dialyzed FBS, 5.12 µM
[10] = HPLM + 10% dialyzed FBS, 15.4 µM
[11] = HPLM + 10% dialyzed FBS, 46.1 µM
[12] = RPMI 5 mM glucose + 10% FBS, 0.000781 µM
[13] = RPMI 5 mM glucose + 10% FBS, 0.00234 µM
[14] = RPMI 5 mM glucose + 10% FBS, 0.00702 µM
[15] = RPMI 5 mM glucose + 10% FBS, 0.0211 µM
[16] = RPMI 5 mM glucose + 10% FBS, 0.0632 µM
[17] = RPMI 5 mM glucose + 10% FBS, 0.19 µM
[18] = RPMI 5 mM glucose + 10% FBS, 0.569 µM
[19] = RPMI 5 mM glucose + 10% FBS, 1.71 µM
[20] = RPMI 5 mM glucose + 10% FBS, 5.12 µM
[21] = RPMI 5 mM glucose + 10% FBS, 15.4 µM
[22] = RPMI 5 mM glucose + 10% FBS, 46.1 µM
[23] = RPMI 5 mM glucose + 10% dialyzed FBS, 0.000781 µM
[24] = RPMI 5 mM glucose + 10% dialyzed FBS, 0.00234 µM
[25] = RPMI 5 mM glucose + 10% dialyzed FBS, 0.00702 µM
[26] = RPMI 5 mM glucose + 10% dialyzed FBS, 0.0211 µM
[27] = RPMI 5 mM glucose + 10% dialyzed FBS, 0.0632 µM
[28] = RPMI 5 mM glucose + 10% dialyzed FBS, 0.19 µM
[29] = RPMI 5 mM glucose + 10% dialyzed FBS, 0.569 µM
[30] = RPMI 5 mM glucose + 10% dialyzed FBS, 1.71 µM
[31] = RPMI 5 mM glucose + 10% dialyzed FBS, 5.12 µM
[32] = RPMI 5 mM glucose + 10% dialyzed FBS, 15.4 µM
[33] = RPMI 5 mM glucose + 10% dialyzed FBS, 46.1 µM

Structure (SMILES) | cell viability [1] | cell viability [2] | cell viability [3] | cell viability [4] | cell viability [5] | cell viability [6] | cell viability [7] | cell viability [8] | cell viability [9] | cell viability [10] | cell viability [11] | cell viability [12] | cell viability [13] | cell viability [14] | cell viability [15] | cell viability [16] | cell viability [17] | cell viability [18] | cell viability [19] | cell viability [20] | cell viability [21] | cell viability [22] | cell viability [23] | cell viability [24] | cell viability [25] | cell viability [26] | cell viability [27] | cell viability [28] | cell viability [29] | cell viability [30] | cell viability [31] | cell viability [32] | cell viability [33]
FC1=CC=C(SC/2=N/N3\C=N/C(=O)/C(=C3/C=C2)C4=C(Cl)C=CC=C4Cl)C(=C1)F | 100% | 104% | 114% | 108% | 114% | 102% | 117% | 114% | 114% | 94.9% | 33.6% | 105% | 101% | 95.7% | 108% | 106% | 104% | 106% | 98.6% | 93.4% | 66.2% | 24.8% | 96.4% | 104% | 110% | 104% | 107% | 107% | 105% | 120% | 105% | 86% | 38.1%
OC1=CC2=C(C(=C1)O)C(=O)\C=C(/O2)C3=CC=CC=C3 | 104% | 102% | 105% | 108% | 110% | 108% | 103% | 110% | 104% | 77.9% | 3.28% | 104% | 104% | 107% | 111% | 115% | 110% | 101% | 107% | 103% | 82.9% | 3.34% | 99.5% | 103% | 102% | 99.9% | 103% | 100% | 114% | 104% | 103% | 84.4% | 4.92%
COC(=O)[C@@H]1[C@H]2C[C@H]3c4[nH]c5ccccc5c4CCN3C[C@@H]2CC[C@@H]1O | 113% | 118% | 122% | 116% | 122% | 128% | 121% | 117% | 20.8% | 14.4% | 12.4% | – | – | – | – | – | – | – | – | – | – | – | 103% | 114% | 114% | 124% | 111% | 124% | 127% | 128% | 70.6% | 32.9% | 17.9%
CNc1nccc(-c2cccnc2Oc2cc(C(=O)Nc3cccc(C(F)(F)F)c3)ccc2C)n1 | 105% | 111% | 111% | 113% | 106% | 122% | 118% | 123% | 117% | 91% | 105% | 112% | 113% | 112% | 119% | 119% | 121% | 115% | 127% | 119% | 82.8% | 103% | 105% | 101% | 104% | 114% | 112% | 110% | 112% | 120% | 111% | 90.7% | 103%

Reference: the supplement of paper PMC11451515
